This note sets out measurements from patent publication US20110268789A1, “USE OF PITUITARY ADENYLATE CYCLASE-ACTIVATING POLYPEPTIDE (PACAP) AND PACAP ANALOGS AS ADJUNCTIVE TREATMENTS WITH ANTICANCER AGENTS” (priority 2008, published 2011).

The subject of one assay is Male C57BL/6 mice. Description: Cisplatin-induced nephrotoxicity in mice. It counts as in vivo, mouse. To be noted: cisplatin 20 mg/kg i.p. As for the experimental part: (§1) Male C57BL/6 mice were given a single intraperitoneal injection of 20 mg/kg of cisplatin. Twenty nanomoles of PACAP38 were given intraperitoneally 1 hour before the injection of cisplatin and additional doses were given at 24 and 48 hours after the initial dose. The control group of mice was injected intraperitoneally with the same volume of saline as for the injections of cisplatin and PACAP38 on the same schedule. The mice were euthanized 24 hours after the final injection of PACAP38. Each value represents the mean plus/minus the standard error of four determinations. ***p<0.001 and **p<0.01 compared to the group treated only with cisplatin.
as §1, with “PACAP38. TNF-α was extracted from one kidney of each mouse and quantified with an enzyme-linked immunosorbent assay.” for “PACAP38.”
Male C57BL/6 mice were given a single intraperitoneal injection of 20 mg/kg of cisplatin. Twenty nanomoles of PACAP38 were given intraperitoneally 1 hour before the injection of cisplatin and additional doses were given at 24 and 48 hours after the initial dose. The control group of mice were injected intraperitoneally with the same volume of saline as for the injections of cisplatin and PACAP38 on the same schedule. The mice were euthanized 24 hours after the final injection of PACAP38, and the kidneys were removed and fixed in 10% formalin. The fixed sections were stained with hematoxylin and eosin. The sections of the kidneys from control mice show intact renal tubular epithelial cells and well-preserved brush border membranes. The kidneys from mice treated with cisplatin had extensive tubular damage, tubular dilations, intratubular debris, and intratubular casts. […] Tubular damage was more pronounced in the outer cortex in the cisplatin treated mice. The photomicrographs on the left side were made at a lower magnification (×160) than the photomicrographs on the right side (×320). The results described in FIGS. 5, 6, 7, and 8 were from the same experiment.
as §1, with “six” for “four”
as §1, with “The cytoprotective effect of PACAP38 against cisplatin-induced nephrotoxicity was also seen in a common in vivo model. Male” for “Male”, “PACAP38.” for “PACAP38. Each value represents the mean plus/minus the standard error of four determinations. ***p<0.001 and **p<0.01 compared to the group treated only with cisplatin.”

The test system of the next assay is L-132 human lung cells. In words: Bleomycin-induced apoptotic cell death of human pulmonary epithelial cells. The assay is classed as cell-based. The note with it: L-132 cells, peptide added to the medium, FIG. 12. As for the experimental part:
The L-132 human lung cells were cultured in Eagle's Minimum Essential Medium supplemented with 10% fetal bovine serum. […] Each value represents the mean plus/minus the standard deviation of four determinations in three replicate experiments. **p<0.01 and *p<0.05 compared to the bleomycin-treated (control) cells.
At the highest dose tested (10^−6 M), all three peptides reduced the apoptotic cell death of these epithelial cells by more than 60%. […] Therefore, pre- and/or post-treatment of subjects undergoing bleomycin-based cancer chemotherapy with therapeutic doses of PACAP38 and/or PACAP analogs should result in a higher maximal tolerable dose of bleomycin, and an increased frequency of partial clinical responses and/or an increased number of complete remissions.

Assay [1] has as its system MCF-7 human breast cancer cells. Description: Doxorubicin-induced apoptotic cell death of breast cancer cells. It counts as cell-based. To be noted: MCF-7 cells, doxorubicin 48 hours, FIG. 14. As for the experimental part: The MCF-7 human breast cancer cells were cultured in Eagle's Minimum Essential Medium supplemented with 10% non-inactivated fetal bovine serum and 0.05 mM 2-mercaptoethanol. The effects of PACAP38 and N-acetyl[Ala^16,17,D-Lys^38]PACAP38 on apoptotic cell death were assessed by the quantitative determination of cytoplasmic histone-associated DNA-fragmentation (mono- and oligonucleosomes) after exposure to doxorubicin for 48 hours. Each value represents the mean plus/minus the standard deviation of three determinations. **p<0.01 compared to the doxorubicin-treated (control) cells.
At the highest dose tested (10^−6 M), both peptides reduced the apoptotic cell death of these breast cancer cells by more than 50%.

Assay [2] has as its system light-chain immunoglobulin-secreting human myeloma cells. Description: Vincristine-induced apoptotic cell death of myeloma cells. It counts as cell-based. As for the experimental part: The light-chain immunoglobulin-secreting human myeloma cells were cultured in RPMI 1640 medium supplemented with 10% non-inactivated fetal bovine serum and 0.05 mM 2-mercaptoethanol. The effects of PACAP38 on apoptotic cell death was assessed by the quantitative determination of cytoplasmic histone-associated DNA-fragmentation (mono- and oligonucleosomes) after exposure to vincristine for 48 hours. Each value represents the mean plus/minus the standard deviation of four determinations. **p<0.01 and *p<0.05 compared to the vincristine-treated (control) cells.

For assay [3] the test system is unchanged. Description: Thalidomide-induced apoptotic cell death of myeloma cells. It counts as cell-based. As for the experimental part: The light-chain immunoglobulin-secreting human myeloma cells were cultured in RPMI 1640 medium supplemented with 10% non-inactivated fetal bovine serum and 0.05 mM 2-mercaptoethanol. The effects of PACAP38 on apoptotic cell death was assessed by the quantitative determination of cytoplasmic histone-associated DNA-fragmentation (mono- and oligonucleosomes) after exposure to thalidomide for 48 hours. Each value represents the mean plus/minus the standard deviation of four determinations. **p<0.01 and *p<0.05 compared to the thalidomide-treated (control) cells.

As for PACAP38, in the assay with Male C57BL/6 mice (20 nanomoles peptide i.p. 1 h before and at 24 and 48 h, ELISA, FIG. 8), the “increase in TNF-α in the kidney” value is reported as “significantly reduced”. In the assay with Male C57BL/6 mice (20 nanomoles peptide i.p. 1 h before and at 24 and 48 h, FIG. 6), the “increase in serum creatinine” value is recorded as “significantly reduced”. The “increase in blood urea nitrogen” value with Male C57BL/6 mice (20 nanomoles peptide i.p. 1 h before and at 24 and 48 h, FIG. 7) was “significantly reduced”. Also, the “morphology of the kidney (hematoxylin and eosin)” value in the assay on Male C57BL/6 mice (20 nanomoles peptide i.p. 1 h before and at 24 and 48 h, FIG. 9) is reported as “relatively well preserved tubular morphology”. For the same substance, the “relative potency as cytoprotectants against cisplatin-induced impairment of kidney function (serum creatinine)” value with Male C57BL/6 mice (FIG. 10) is reported as “approximately equipotent”. The “reduction in bleomycin-induced apoptotic cell death” value in the assay on L-132 human lung cells is listed as “significant dose-dependent reduction”. In addition, in assay [1], the “reduction in doxorubicin-induced apoptotic cell death” value is “dose-dependent reduction”. For the same substance, the “lowest dose with significant enhancement of vincristine-induced apoptotic cell death” value in assay [2] was 10^−9 M. For the same substance, in assay [2] (vincristine 48 hours, FIG. 18), the “effect on vincristine-induced apoptotic cell death” value is given as “dose-dependent enhancement”. Further, the “lowest dose with significant enhancement of thalidomide-induced apoptotic cell death” value in assay [3] was 10^−8 M. Moreover, the “effect on thalidomide-induced apoptotic cell death” value in assay [3] (thalidomide 48 hours, FIG. 19) is “dose-dependent enhancement”.
